# Reference: publication PMC7181660, “A novel specific PERK activator reduces toxicity and extends survival in Huntington's disease models” (Scientific Reports, 2020)
# Where two headings read alike, the source gives them in different places.
# Columns and labels:
# Test in all cases: biochemical
# Type in all cases: biochemical
# [1] = target: panel of 391 kinases (Homo sapiens, UniProt P07949); conditions: RET, MK-28 1 µM, ATP 1 µM
# [2] = target: panel of 391 kinases (Homo sapiens, UniProt P24723); conditions: PKCeta, MK-28 1 µM, ATP 1 µM
# [3] = target: panel of 391 kinases (Homo sapiens, UniProt P29376); conditions: TYK1/LTK, MK-28 1 µM, ATP 1 µM
# [4] = target: panel of 391 kinases (Homo sapiens, UniProt P37023); conditions: ALK1/ACVRL1, MK-28 1 µM, ATP 1 µM
# [5] = target: panel of 391 kinases (Homo sapiens, UniProt P41240); conditions: CSK, MK-28 1 µM, ATP 1 µM
# [6] = target: panel of 391 kinases (Homo sapiens, UniProt P49137); conditions: MAPKAPK2, MK-28 1 µM, ATP 1 µM
# [7] = target: panel of 391 kinases (Homo sapiens, UniProt P49761); conditions: CLK3, MK-28 1 µM, ATP 1 µM
# [8] = target: panel of 391 kinases (Homo sapiens, UniProt P51617); conditions: IRAK1, MK-28 1 µM, ATP 1 µM
# [9] = target: panel of 391 kinases (Homo sapiens, UniProt P51955); conditions: NEK2, MK-28 1 µM, ATP 1 µM
# [10] = target: panel of 391 kinases (Homo sapiens, UniProt P54762); conditions: EPHB1, MK-28 1 µM, ATP 1 µM
# [11] = target: panel of 391 kinases (Homo sapiens, UniProt Q00526); conditions: MK-28 1 µM, ATP 1 µM; for remaining activity at 1 µM: read-out: % Enzyme Activity (relative to DMSO controls)
# [12] = target: panel of 391 kinases (Homo sapiens, UniProt Q05397); conditions: FAK/PTK2, MK-28 1 µM, ATP 1 µM
# [13] = target: panel of 391 kinases (Homo sapiens, UniProt Q08345); conditions: DDR1, MK-28 1 µM, ATP 1 µM
# [14] = target: panel of 391 kinases (Homo sapiens, UniProt Q16513); conditions: PKN2/PRK2, MK-28 1 µM, ATP 1 µM
# [15] = target: panel of 391 kinases (Homo sapiens, UniProt Q56UN5); conditions: YSK4/MAP3K19, MK-28 1 µM, ATP 1 µM
# [16] = target: panel of 391 kinases (Homo sapiens, UniProt Q6P5Z2); conditions: PKN3/PRK3, MK-28 1 µM, ATP 1 µM
# [17] = target: panel of 391 kinases (Homo sapiens, UniProt Q8TF76); conditions: Haspin, MK-28 1 µM, ATP 1 µM
# [18] = target: panel of 391 kinases (Homo sapiens, UniProt Q96BR1); conditions: SGK3/SGKL, MK-28 1 µM, ATP 1 µM
# [19] = target: panel of 391 kinases (Homo sapiens, UniProt Q9H2G2); conditions: SLK/STK2, MK-28 1 µM, ATP 1 µM
# [20] = target: panel of 391 kinases (Homo sapiens, UniProt Q9H2K8); conditions: TAOK3/JIK, MK-28 1 µM, ATP 1 µM
# [21] = target: panel of 391 kinases (Homo sapiens, UniProt Q9HAZ1); conditions: CLK4, MK-28 1 µM, ATP 1 µM
# [22] = target: panel of 391 kinases (Homo sapiens, UniProt Q9HBY8); conditions: SGK2, MK-28 1 µM, ATP 1 µM
# [23] = target: panel of 391 kinases (Homo sapiens, UniProt Q9HCP0); conditions: CK1g1, MK-28 1 µM, ATP 1 µM
# [24] = target: panel of 391 kinases (Homo sapiens, UniProt Q9UIK4); conditions: DAPK2, MK-28 1 µM, ATP 1 µM
# [25] = target: panel of 391 kinases (Homo sapiens, UniProt Q9Y2K2); conditions: SIK3, MK-28 1 µM, ATP 1 µM
# [26] = target: panel of 391 kinases (Homo sapiens, UniProt Q9Y572); conditions: RIPK3, MK-28 1 µM, ATP 1 µM
# [27] = read-out: % Enzyme Activity (relative to DMSO controls)
smiles,measurement,setting,value
CN(/N=C\c1ccc(O)c(O)c1)c1nc(-c2ccccc2)cc(-c2ccccc2)n1 [MK-28],% Enzyme Activity (relative to DMSO controls),[1],98.07%
same,remaining activity at 1 µM,[1]; [27],99.2%
same,% Enzyme Activity (relative to DMSO controls),[2],98.39%
same,remaining activity at 1 µM,[2]; [27],101%
same,% Enzyme Activity (relative to DMSO controls),[3],82.78%
same,remaining activity at 1 µM,[3]; [27],84.2%
same,% Enzyme Activity (relative to DMSO controls),[4],91.36%
same,remaining activity at 1 µM,[4]; [27],94.7%
same,% Enzyme Activity (relative to DMSO controls),[5],96.35%
same,remaining activity at 1 µM,[5]; [27],96.9%
same,% Enzyme Activity (relative to DMSO controls),[6],93.81%
same,remaining activity at 1 µM,[6]; [27],94%
same,% Enzyme Activity (relative to DMSO controls),[7],105.09%
same,remaining activity at 1 µM,[7]; [27],110%
same,% Enzyme Activity (relative to DMSO controls),[8],84.75%
same,remaining activity at 1 µM,[8]; [27],88.3%
same,% Enzyme Activity (relative to DMSO controls),[9],98.55%
same,remaining activity at 1 µM,[9]; [27],99.2%
same,% Enzyme Activity (relative to DMSO controls),[10],96.23%
same,remaining activity at 1 µM,[10]; [27],98.1%
same,% Enzyme Activity (relative to DMSO controls),[11]; CDK3/cyclin E2,90.11%
same,remaining activity at 1 µM,[11]; CDK3/cyclin E2,92.8%
same,% Enzyme Activity (relative to DMSO controls),[11]; CDK3/cyclin E,101.82%
same,remaining activity at 1 µM,[11]; CDK3/cyclin E,102%
same,% Enzyme Activity (relative to DMSO controls),[12],97.96%
same,remaining activity at 1 µM,[12]; [27],98.1%
same,% Enzyme Activity (relative to DMSO controls),[13],100.73%
same,remaining activity at 1 µM,[13]; [27],103%
same,% Enzyme Activity (relative to DMSO controls),[14],111.91%
same,remaining activity at 1 µM,[14]; [27],115%
same,% Enzyme Activity (relative to DMSO controls),[15],104.21%
same,remaining activity at 1 µM,[15]; [27],106%
same,% Enzyme Activity (relative to DMSO controls),[16],98.68%
same,remaining activity at 1 µM,[16]; [27],101%
same,% Enzyme Activity (relative to DMSO controls),[17],102.02%
same,remaining activity at 1 µM,[17]; [27],116%
same,% Enzyme Activity (relative to DMSO controls),[18],103.83%
same,remaining activity at 1 µM,[18]; [27],105%
same,% Enzyme Activity (relative to DMSO controls),[19],100.63%
same,remaining activity at 1 µM,[19]; [27],102%
same,% Enzyme Activity (relative to DMSO controls),[20],100.19%
same,remaining activity at 1 µM,[20]; [27],103%
same,% Enzyme Activity (relative to DMSO controls),[21],105.55%
same,remaining activity at 1 µM,[21]; [27],109%
same,% Enzyme Activity (relative to DMSO controls),[22],79.78%
same,remaining activity at 1 µM,[22]; [27],81.3%
same,% Enzyme Activity (relative to DMSO controls),[23],78.20%
same,remaining activity at 1 µM,[23]; [27],80%
same,% Enzyme Activity (relative to DMSO controls),[24],98.71%
same,remaining activity at 1 µM,[24]; [27],104%
same,% Enzyme Activity (relative to DMSO controls),[25],101.97%
same,remaining activity at 1 µM,[25]; [27],105%
same,% Enzyme Activity (relative to DMSO controls),[26],100.16%
same,remaining activity at 1 µM,[26]; [27],101%
